This is an account of results in US7307095B2, “Inhibitors of cathepsin S” (IRM LLC, priority 2003, dated 2007).

What all share (type): biochemical
The target of one test is Cathepsin B (Homo sapiens, UniProt P07858). Briefly: Cathepsin B inhibition, fluorogenic peptide substrate kinetic assay (selectivity ratio vs cathepsin S). The note with it: ratio of cathepsin B inhibition constant to cathepsin S inhibition constant. Here is the method: (§1) Kinetic measurements are performed in a total reaction volume of 30 μl in 384-well microtiter plates. […] Control reactions in the absence of inhibitor are performed in replicates of 24. The reactions are initiated by adding the substrate, acetyl-histidine-proline-valine-lysine-amino carbamoyl coumarin, to a final concentration of 10 μM. The rate of substrate hydrolysis is measured by monitoring the increase in fluorescence at an excitation wavelength of 380 nm and an emission wavelength of 450 nm that results from cleavage of the aniline bond in the substrate by the enzyme. The apparent inhibition constants for the compounds are determined from the enzyme progress curves ([…]. Elrod, et al. Anal Biochem 2000, 286(1), 45-50) and are then used to calculate the inhibition constants for competitive inhibitors. Selectivity for cathepsin S in the presence of cathepsin isozymes was determined by the ratio of the cathepsin isozyme inhibition constant of a compound of the present invention to the cathepsin S inhibition constant of the same compound.

In the next test the target is T1, Cathepsin K (Homo sapiens, UniProt P43235).
T1 sequence (P43235 115-329): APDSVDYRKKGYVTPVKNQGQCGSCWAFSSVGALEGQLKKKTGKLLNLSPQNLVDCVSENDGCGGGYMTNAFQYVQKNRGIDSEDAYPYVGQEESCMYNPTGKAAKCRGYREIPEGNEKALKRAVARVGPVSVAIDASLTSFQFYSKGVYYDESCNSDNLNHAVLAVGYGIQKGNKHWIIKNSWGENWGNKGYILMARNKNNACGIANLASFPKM
Kind of test: Cathepsin K inhibition, fluorogenic peptide substrate kinetic assay (selectivity ratio vs cathepsin S). The note with it: ratio of cathepsin K inhibition constant to cathepsin S inhibition constant. Here is the method:
as §1, with “acetyl-lysine-histidine-proline-lysine-amino” for “acetyl-histidine-proline-valine-lysine-amino”, “40” for “10”

For a further test, the target named is Cathepsin S (Homo sapiens, UniProt P25774). Kind of test: Cathepsin S inhibition, fluorogenic peptide substrate kinetic assay. The note with it: Cathepsin S inhibition constant; read-out: Ki Cat. S. Here is the method:
(§2) The optimal substrate for cathepsin S, acetyl-histidine-proline-valine-lysine-amino carbamoyl coumarin, was identified from screening a combinatorial library of fluorogenic peptide substrates (Harris, J. L., B. J. Backes, et al. Proc Natl Acad Sci USA 2000, 97(14), 7754-9). Kinetic measurements are performed in a total reaction volume of 30 μl in 384-well microtiter plates. […] Control reactions in the absence of inhibitor are performed in replicates of 24. The reactions are initiated by adding the substrate, acetyl-histidine-proline-valine-lysine-amino carbamoyl coumarin, to a final concentration of 50 μM. The rate of substrate hydrolysis is measured by monitoring the increase in fluorescence at an excitation wavelength of 380 nm and an emission wavelength of 450 nm that results from cleavage of the aniline bond in the substrate by the enzyme. The apparent inhibition constants for the compounds are determined from the enzyme progress curves (Kuzmic, P., K. C. Elrod, et al. Anal Biochem 2000, 286(1), 45-50) and are then used to calculate the inhibition constants for competitive inhibitors.

The next test addresses Cathepsin L (Homo sapiens, UniProt P07711). Briefly: Cathepsin L inhibition, fluorogenic peptide substrate kinetic assay (selectivity ratio vs cathepsin S). The note with it: ratio of cathepsin L inhibition constant to cathepsin S inhibition constant. Here is the method:
as §2, with “cathepsin L, acetyl-histidine-lysine-phenylalanine-lysine-amino” for “cathepsin S, acetyl-histidine-proline-valine-lysine-amino”, “substrate, acetyl-histidine-lysine-phenylalanine-lysine-amino” for “substrate, acetyl-histidine-proline-valine-lysine-amino”, “of 20” for “of 50”, “curves ([…].” for “curves (Kuzmic, P., K. C.”, “inhibitors. Selectivity for cathepsin S in the presence of cathepsin isozymes was determined by the ratio of the cathepsin isozyme inhibition constant of a compound of the present invention to the cathepsin S inhibition constant of the same compound.” for “inhibitors.”

Where only a bound is given, the exact number is not on record here.

Chain of Cathepsin S (P25774 115-331, species assumed): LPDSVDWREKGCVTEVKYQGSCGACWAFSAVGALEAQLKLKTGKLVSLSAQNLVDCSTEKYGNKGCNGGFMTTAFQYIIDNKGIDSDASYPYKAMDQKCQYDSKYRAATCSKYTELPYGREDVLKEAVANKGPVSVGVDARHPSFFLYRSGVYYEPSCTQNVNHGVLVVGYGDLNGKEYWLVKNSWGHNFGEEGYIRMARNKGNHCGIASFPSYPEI
Chain of Cathepsin L (P07711 114-333, species assumed): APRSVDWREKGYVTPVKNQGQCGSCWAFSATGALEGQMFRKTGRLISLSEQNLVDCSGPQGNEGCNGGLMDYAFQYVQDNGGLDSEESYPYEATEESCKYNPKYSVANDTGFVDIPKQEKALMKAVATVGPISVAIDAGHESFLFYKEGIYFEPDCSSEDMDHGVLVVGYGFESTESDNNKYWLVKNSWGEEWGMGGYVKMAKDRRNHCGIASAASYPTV

As to `CC(C)(C)C[C@H](Nc1nc2ccccc2o1)C(=O)N[C@@H](CO)CN1CCc2cc(F)ccc21` [Example 7, 2-(S)-(Benzooxazol-2-ylamino)-4,4-dimethyl-pentanoic acid [2-(5-fluoro-2,3-dihydro-indol-1-yl)-1-(R)-hydroxymethyl-ethyl]-amide], the “Selectivity for Cat. S over Cat. B” value at Cathepsin B is listed as “+++ (+++, >1000)”. Besides, the “Selectivity for Cat. S over Cat. K” value at Cathepsin K was “+ (+, >10)”. Also, the Ki at Cathepsin S is below 100 nM. In addition, the “Selectivity for Cat. S over Cat. L” value on Cathepsin L was “+++ (+++, >1000)”.
`C[C@@H](CNc1ccc(OC(F)(F)F)cc1)NC(=O)[C@H](CC(C)(C)C)Nc1nc2cccc(Cl)c2o1` [Example 41, 2-(S)-(7-Chloro-benzooxazol-2-ylamino)-4,4-dimethyl-pentanoic acid [1-(S)-methyl-2-(4-trifluoromethoxy-phenylamino)-ethyl]-amide]: the Ki on Cathepsin S was below 100 nM.
For `CC(C)(C)C[C@H](Nc1nc2ccccc2o1)C(=O)N[C@H](CN1CCc2cc(F)ccc21)CS(C)(=O)=O` [Example 12, (S)-2-(Benzooxazol-2-ylamino)-4,4-dimethyl-pentanoic acid (R)-[2-(5-fluoro-2,3-dihydro-indol-1-yl)-1-methanesulfonylmethyl-ethyl]-amide], on Cathepsin B, the “Selectivity for Cat. S over Cat. B” value is on record as “+++ (+++, >1000)”. Further, the “Selectivity for Cat. S over Cat. K” value at Cathepsin K is “++ (++, >100)”. Moreover, the inhibitory constant (Ki) at Cathepsin S was below 100 nM. Moreover, the “Selectivity for Cat. S over Cat. L” value on Cathepsin L is reported as “+++ (+++, >1000)”.
As to `Cc1sc(N[C@@H](CC2CCCCC2)C(=O)NCCN2CCc3cc(F)ccc32)nc1-c1ccccc1` [Example 20, (S)-3-Cyclohexyl-N-[2-(5-fluoro-2,3-dihydro-indol-1-yl)-ethyl]-2-(5-methyl-4-phenyl-thiazol-2-ylamino)-propionamide], at Cathepsin B, the “Selectivity for Cat. S over Cat. B” value was “+ (+, >10)”. Besides, the “Selectivity for Cat. S over Cat. K” value on Cathepsin K is reported as “+ (+, >10)”. In addition, on Cathepsin S, the Ki was below 10000 nM.
In the case of `O=C(NCCNc1ccc(F)cc1)[C@H](CC1CCCCC1)Nc1nc2ccc(Cl)cc2s1` [Example 21, 2-(S)-(6-Chloro-benzothiazol-2-ylamino)-3-cyclohexyl-N-[2-(4-fluoro-phenylamino)-ethyl]-propionamide], the “Selectivity for Cat. S over Cat. B” value at Cathepsin B is given as “++ (++, >100)”. For the same molecule, the “Selectivity for Cat. S over Cat. K” value at Cathepsin K is “+ (+, >10)”. Further, on Cathepsin S, the Ki was below 1000 nM. Besides, the “Selectivity for Cat. S over Cat. L” value on Cathepsin L was “+ (+, >10)”.
Turning to `CCOC(=O)C[C@@H](CN1CCc2cc(F)ccc21)NC(=O)[C@H](CC1CCCCC1)Nc1nc2ccc(Cl)cc2s1` [Example 30, 3-(S)-[2-(S)-(6-Chloro-benzothiazol-2-ylamino)-3-cyclohexyl-propionylamino]-4-(5-fluoro-2,3-dihydro-indol-1-yl)-butyric acid ethyl ester], the “Selectivity for Cat. S over Cat. B” value at Cathepsin B is recorded as “+++ (+++, >1000)”. In addition, the “Selectivity for Cat. S over Cat. K” value at Cathepsin K is reported as “+++ (+++, >1000)”. Moreover, at Cathepsin S, the Ki was below 100 nM. The “Selectivity for Cat. S over Cat. L” value at Cathepsin L is “++ (++, >100)”.
Regarding `C[C@@H](CNc1ccc(OC(F)(F)F)cc1)NC(=O)[C@H](CC1CCCC1)Nc1nc2cccc(Cl)c2o1` [Example 39, 2-(S)-(7-Chloro-benzooxazol-2-ylamino)-3-cyclopentyl-N-[1-(S)-methyl-2-(4-trifluoromethoxy-phenylamino)-ethyl]-propionamide], the Ki at Cathepsin S is below 100 nM.
With `CC(C)(C)C[C@H](Nc1nc2ccccc2o1)C(=O)N[C@@H](CCS(C)(=O)=O)CN1CCc2cc(F)ccc21` [Example 5, 2-(S)-(Benzooxazol-2-ylamino)-4,4-dimethyl-pentanoic acid [1-(S)-(5-fluoro-2,3-dihydro-indol-1-ylmethyl)-3-methanesulfonyl-propyl]-amide], the “Selectivity for Cat. S over Cat. B” value on Cathepsin B is “+++ (+++, >1000)”. The “Selectivity for Cat. S over Cat. K” value at Cathepsin K was “+ (+, >10)”. Further, at Cathepsin S, the Ki is below 100 nM. Moreover, the “Selectivity for Cat. S over Cat. L” value at Cathepsin L is on record as “+++ (+++, >1000)”.
As to `Cc1cc(NC[C@H](C)NC(=O)[C@H](CC2CCCCC2)Nc2nc3cccc(Cl)c3o2)no1` [Example 25, 2-(S)-(7-Chloro-benzooxazol-2-ylamino)-3-cyclohexyl-N-[1-(S)-methyl-2-(5-methyl-isoxazol-3-ylamino)-ethyl]-propionamide], the Ki on Cathepsin S was below 10000 nM.
On to `CC(C)(C)C[C@H](Nc1nc2ccccc2o1)C(=O)N[C@@H](CC(=O)O)CN1CCc2cc(F)ccc21` [Example 4, 3-(S)-[2-(S)-(Benzooxazol-2-ylamino)-4,4-dimethyl-pentanoylamino]-4-(5-fluoro-2,3-dihydro-indol-1-yl)-butyric acid], for which the “Selectivity for Cat. S over Cat. B” value on Cathepsin B is recorded as “+++ (+++, >1000)”. For the same molecule, at Cathepsin K, the “Selectivity for Cat. S over Cat. K” value was “++ (++, >100)”. Also, the Ki on Cathepsin S was below 100 nM. For the same molecule, at Cathepsin L, the “Selectivity for Cat. S over Cat. L” value is recorded as “+++ (+++, >1000)”.
As to `C[C@@H](CNc1ccc(OC(F)(F)F)cc1)NC(=O)[C@H](CC1CC1)Nc1nc2cccc(Cl)c2o1` [Example 43, 2-(S)-(7-Chloro-benzooxazol-2-ylamino)-3-cyclopropyl-N-[1-(S)-methyl-2-(4-trifluoromethoxy-phenylamino)-ethyl]-propionamide], the Ki on Cathepsin S was below 100 nM.
For the molecule `COC(=O)c1ccc2nc(N[C@@H](CC3CCCCC3)C(=O)N[C@@H](C)CNc3ccc(F)cc3)oc2c1` [Example 24, (S,S)2-{2-Cyclohexyl-1-[2-(4-fluoro-phenylamino)-1-methyl-ethylcarbamoyl]-ethylamino}-benzooxazole-6-carboxylic acid methyl ester], the Ki on Cathepsin S is below 100 nM.
Turning to `C[C@@H](CN1CCc2cc(F)ccc21)NC(=O)[C@H](CC1CCCCC1)Nc1nc2ccc(Cl)cc2s1` [Example 34, 2-(S)-(6-Chloro-benzothiazol-2-ylamino)-3-cyclohexyl-N-[2-(5-fluoro-2,3-dihydro-indol-1-yl)-1-(S)-methyl-ethyl]-propionamide], the Ki on Cathepsin S is below 100 nM.
As to `O=C(O)C[C@@H](CN1CCc2cc(F)ccc21)NC(=O)[C@H](CC1CCCCC1)Nc1nc2ccc(Cl)cc2s1` [Example 29, 3-(S)-[2-(S)-(6-Chloro-benzothiazol-2-ylamino)-3-cyclohexyl-propionylamino]-4-(5-fluoro-2,3-dihydro-indol-1-yl)-butyric acid], the Ki at Cathepsin S is below 100 nM.
In the case of `CC(C)(C)C[C@H](Nc1nccc2ccccc12)C(=O)NCCN1CCc2cc(F)ccc21` [Example 19, 2-(S)-(Isoquinolin-1-ylamino)-4,4-dimethyl-pentanoic acid [2-(5-fluoro-2,3-dihydro-indol-1-yl)-ethyl]-amide], the “Selectivity for Cat. S over Cat. B” value on Cathepsin B is on record as “+++ (+++, >1000)”. The Ki on Cathepsin S is below 100 nM. Besides, the “Selectivity for Cat. S over Cat. L” value at Cathepsin L was “+ (+, >10)”.

One may read the Ki as the equilibrium dissociation constant of an inhibitor or competing ligand from its target.
